Results reported in publication PMC7322544, “Combining an in silico proarrhythmic risk assay with a tPKPD model to predict QTc interval prolongation in the anesthetized guinea pig assay” (Toxicology and Applied Pharmacology, 2020).

Test system: QTc interval
Assay: Anesthetized cardiovascular guinea pig (CVGP) assay
Format: in vivo
Method: Briefly, male Hartley guinea pigs (BW: 350–500 g) were anesthetized with a bolus mixture of ketamine/xylazine (85/5 mg kg^− 1, IM) then an intravenous (iv) infusion of ketamine/xylazine (40/0.5 mg kg^− 1 h^− 1, to effect). The jugular vein and left carotid arteries were cannulated for test article administration and arterial blood pressure (BP) monitoring and blood collection, respectively. The body surface electrocardiogram (ECG) was measured via subcutaneous needle electrodes to record modified lead-II ECG. After surgery, anesthetized GPs were stabilized for a minimum of 10 min before beginning baseline data collection. Solutions of 3 varying test-article concentrations suitable for administering selected doses were prepared in appropriate vehicles. Vehicle alone or test-article solutions were administered i.v. with each dose level infused over a 20-min period. Each test article and vehicle were evaluated in ≥ n = 3 male anesthetized GPs. Blood sampling for pharmacokinetic analysis was taken at 10 and 19 min of each dose level.

COc1c(N2C[C@@H]3CCCN[C@@H]3C2)c(F)cc2c(=O)c(C(=O)O)cn(C3CC3)c12 [NCE 7, moxifloxacin]
CVGP QTc EC5 (anesthetized guinea pig, free plasma concentration causing 5% increase in QTc interval, > = highest free plasma concentration tested without QTc prolongation): 12 µM
CVGP QTc EC5 (free plasma concentration): 15 µM
Guinea pig QTc EC5 (free plasma concentration giving 5% QTc increase, > = above highest free plasma concentration tested, no QTc prolongation, i.v. infusion): 15 µM
